# Results published in BindingDB's records for doi:10.1016/j.bmcl.2014.09.005 (Rhône-Poulenc Rorer, 2014).
# Assay: Antagonist activity at CRTh2 receptor in human eosinophil assessed as inhibition of PGD2-induced cell shape change
row,IC50 [nM],SMILES
1,14,CCN(Cc1cc(C(F)(F)F)ccc1-c1cn(CC(=O)O)c2cccnc12)C(=O)C1CC1
2,8,CCN(Cc1cc(C(F)(F)F)ccc1-c1cn(CC(=O)O)c2ccncc12)C(=O)C1CC1
3,20,CCN(Cc1cc(C(F)(F)F)ccc1-n1cc(CC(=O)O)c2cccnc21)C(=O)C1CC1
4,19,CCN(Cc1cc(C(F)(F)F)ccc1-c1cc(CC(=O)O)c2ccncn12)C(=O)C1CC1
5,94,CCN(Cc1cc(C(F)(F)F)ccc1-c1nc(CC(=O)O)c2ccccn12)C(=O)C1CC1

# The next lines start with the molecule.
row,SMILES,IC50 [nM]
1,CCN(Cc1cc(C(F)(F)F)ccc1-c1cc(CC(=O)O)cc2cnn(C)c12)C(=O)C1CC1,58
2,CCN(Cc1cc(C(F)(F)F)ccc1-c1cc(CC(=O)O)cc2cn(C)nc12)C(=O)C1CC1,43
3,CCN(Cc1cc(C(F)(F)F)ccc1-c1cn(CC(=O)O)c2ccccc12)C(=O)C1CC1,63
4,CCN(Cc1cc(C(F)(F)F)ccc1-c1cc(CC(=O)O)ccc1OC)C(=O)C1CC1,13
